In brackets after ≈: the same amount, converted by molar mass.
How the values were obtained:
Leishmania donovani [1] = test: Antileishmanial activity against Leishmania donovani L82 amastigotes infected in CD1 mouse peritoneal macrophages after 5 days by Giemsa staining based microscopic method; format: functional; conditions: L82, 120 h, read-out: ED50 (the source's name)
Leishmania donovani [2] = test: Antileishmanial activity against Leishmania donovani MHOM/SD/00/1SD2D […] amastigotes infected in human peripheral blood monocyte-derived macrophages after 48 hrs by [3H]-thymidine incorporation assay; format: functional, organism-based
Leishmania amazonensis [3] = test: Antileishmanial activity against Leishmania amazonensis LV/79 (MPRO/BR/72/M 1841) amastigotes infected in Balb/c mouse macrophages after 48 hrs by Giemsa staining based light microscopic method; format: functional; conditions: read-out: ED50 (the source's name)
Leishmania panamensis = test: Antileishmanial activity against GFP fused Leishmania panamensis MHOM/CO/87/UA140 amastigotes infected in human […] cells after 72 hrs by flow cytometry; format: functional, organism-based; conditions: MHOM/CO/87/UA140, 72 h
Leishmania amazonensis [4] = test: Antileishmanial activity against Leishmania amazonensis MHOM/BR/76/LTB-012 axenic amastigotes; format: functional, organism-based
Leishmania amazonensis [5] = test: Antileishmanial activity against Leishmania amazonensis MHOM/BR/76/LTB-012 axenic amastigotes after 72 hrs by MTT dye based assay; format: functional, organism-based; conditions: MHOM/BR/76/LTB-012, 72 h
Leishmania donovani [6] = test: Antileishmanial activity against DsRed-positive Leishmania donovani Dd8 amastigotes infected in mouse J774A1 cells after 48 hrs by flow cytometry; format: functional, organism-based; conditions: Dd8, J774.A1, 48 h
Leishmania donovani [7] = test: Antileishmanial activity against Leishmania donovani amastigotes; format: functional, organism-based
Leishmania amazonensis [8] = test: Antileishmanial activity against Leishmania amazonensis MHOM/BR/75/M-2904 strain Lb2904 amastigotes infected in mouse J774A1 cells after 48 hrs by Giemsa staining based microscopic method; format: functional, organism-based; conditions: MHOM/BR/75/M-2904 Lb290, J774.A1, 48 h
Leishmania major = test: Antileishmanial activity against Leishmania major amastigotes infected in human peripheral blood monocyte-derived macrophages; format: functional, organism-based

O=C(/C=C/c1ccc2ccccc2c1)c1ccc(O)cc1
EC50 (Leishmania donovani [1]): 1380 nM

COc1ccc(C(=O)/C=C/c2cnc3ccccc3c2)c(OC)c1
EC50 (Leishmania donovani [1]): 1500 nM

O=C(/C=C/c1ccccn1)c1ccc(O)cc1
EC50 (Leishmania donovani [1]): 1480 nM

C=CCOc1ccc(C(=O)/C=C/c2cccc(OC)c2OC)cc1
IC50 (Leishmania donovani [2]): 650 nM

C=CCOc1ccc(C(=O)/C=C/c2ccc(OC)c(OC)c2)cc1
IC50 (Leishmania donovani [2]): 420 nM

COc1cc(O)c(C(=O)/C=C/c2ccccc2)c(O)c1
EC50 (Leishmania amazonensis [3]): 24 µg/mL (≈ 88.8 µM)

O=C(/C=C/c1cccc(Nc2ccnc3cc(Cl)ccc23)c1)c1ccc(Br)cc1
IC50 (Leishmania panamensis): 0.88 µg/mL (≈ 1.9 µM)

O=C(/C=C/c1cccc(Nc2ccnc3cc(Cl)ccc23)c1)c1ccc(Cl)cc1
IC50 (Leishmania panamensis): 0.79 µg/mL (≈ 1.88 µM)

COc1ccc(/C=C/C(=O)c2ccc(OCCCCOc3cc(Cl)ccc3Oc3ccc(Cl)cc3Cl)cc2)cc1OC
IC50 (Leishmania panamensis): 10.2 µg/mL (≈ 16.2 µM)

COc1ccc(/C=C/C(=O)c2ccc(OCCCCCOc3cc(Cl)ccc3Oc3ccc(Cl)cc3Cl)cc2)cc1OC
IC50 (Leishmania panamensis): 13.5 µg/mL (≈ 21 µM)

COc1ccc(/C=C/C(=O)c2ccc(OCCCOc3cc(Cl)ccc3Oc3ccc(Cl)cc3Cl)cc2)cc1OC
IC50 (Leishmania panamensis): 9.4 µg/mL (≈ 15.3 µM)

COc1cc(O)c(C(=O)/C=C/c2ccc(O)cc2)c(O)c1
IC50 (Leishmania amazonensis [4]): 61400 nM

COc1cc(OC)c(C(=O)/C=C/c2ccccc2)c(O)c1OC
IC50 (Leishmania amazonensis [5]): 800 nM

CC(=O)c1sc(N/N=C/c2cccc(/C=C/C(=O)c3ccco3)c2)nc1C
IC50 (Leishmania donovani [6]): 14000 nM

COc1ccc(/C=C/C(=O)c2ccc(OCCCCOc3cccc4cccnc34)cc2)cc1OC
IC50 (Leishmania panamensis): 6.24 µg/mL (≈ 12.9 µM)

COc1ccc(OC)c(C(=O)/C=C/c2ccccn2)c1
IC50 (Leishmania donovani [7]): 950 nM

O=C(/C=C/c1cccc(S(=O)(=O)Nc2ccccc2)c1)c1ccccc1
IC50 (Leishmania amazonensis [8]): 2000 nM

COc1ccc(/C=C/C(=O)c2ccccc2)cc1 [4-METHOXY CHALCONE]
IC50 (Leishmania amazonensis [8]): > 30000 nM

COc1cc(O)cc(O)c1C(=O)/C=C/c1ccccc1 [CARDAMOMIN]
IC50 (Leishmania amazonensis [5]): 8000 nM

C=CC(C)(C)c1cc(/C=C/C(=O)c2ccc(O)cc2)c(OC)cc1O [LICOAGROCHACONE A]
IC50 (Leishmania major): 0.5 µg/mL (≈ 1.48 µM)
